Entries after “also recorded” stand apart in the source; their conditions may differ.
Legend:
[1] = test system: accelerated MFS (aMFS) mice; settings: aMFS aneurysms generated with exogenous angiotensin II; cited from earlier work
MFS mice = settings: cited from earlier work
MFS patients = settings: clinical; cited from earlier work
FBN1 mutant MFS mouse [2] = experiment: Accelerated MFS model: osmotically delivered angiotensin II infusion in FBN1 mutant MFS mouse; type: in vivo
Source text: (§1) The Examples provided infra use a novel murine MFS model of accelerated aortic aneurysm formation and cardiomyopathy. This MFS uses two well-characterized in vivo systems for studying aortopathy and cardiomyopathy, namely, the FBN1 mutant MFS mouse and osmotically delivered angiotensin II infusion. In this accelderated model, significant aortic aneurysms were observed as early as 10 days after angiotensin II pump implantation. […] Overwhelmingly, these deaths were a result of ascending aortic aneurysm rupture or dissection. […] Similarly, the accelerated MFS model described and used herein produced a dilated cardiomyopathy as early as 14 days after angiotensin II minipump installation, as determined by echocardiographic measurements of end-diastolic volume and ejection fraction, heart mass-to-body weight ratios, and hematoxylin and eosin tissue staining patterns consistent with the diagnosis. After 14 days of pump installation, 60% of surviving angiotensin II-infused MFS mice met a defined echocardiographic criteria for dilated cardiomyopathy.
(§2) To better understand these clinical differences, a MFS mouse model was generated to facilitate high throughput therapeutic screening. Using exogenous angiotensin II in MFS mice, ascending aortic aneurysms can be generated in 2 weeks instead of 6-9 months (Cavanaugh N B, et al. (2017) Ann Thorac Surg. 104:657-665). […] TRPC4 antagonists therefore represent an opportunity to replace surgery in MFS aortopathy.

[3] = as above; type: in vivo; settings: angiotensin II-infused wild-type mice over the treatment period
Source text: as §1, §2

FBN1 mutant MFS mouse [4] = settings: instead of 6-9 months in MFS mice; cited from earlier work
TRPC4 = target: T1, TRPC4 (Mus musculus, UniProt Q9QUQ5); settings: ML204 as reference for projected binding affinity of candidate inhibitors; cited from earlier work
T1 construct: expressed in transfected cells; host or cells: HEK293
T1 sequence (Q9QUQ5 1-890 isoform Q9QUQ5-2): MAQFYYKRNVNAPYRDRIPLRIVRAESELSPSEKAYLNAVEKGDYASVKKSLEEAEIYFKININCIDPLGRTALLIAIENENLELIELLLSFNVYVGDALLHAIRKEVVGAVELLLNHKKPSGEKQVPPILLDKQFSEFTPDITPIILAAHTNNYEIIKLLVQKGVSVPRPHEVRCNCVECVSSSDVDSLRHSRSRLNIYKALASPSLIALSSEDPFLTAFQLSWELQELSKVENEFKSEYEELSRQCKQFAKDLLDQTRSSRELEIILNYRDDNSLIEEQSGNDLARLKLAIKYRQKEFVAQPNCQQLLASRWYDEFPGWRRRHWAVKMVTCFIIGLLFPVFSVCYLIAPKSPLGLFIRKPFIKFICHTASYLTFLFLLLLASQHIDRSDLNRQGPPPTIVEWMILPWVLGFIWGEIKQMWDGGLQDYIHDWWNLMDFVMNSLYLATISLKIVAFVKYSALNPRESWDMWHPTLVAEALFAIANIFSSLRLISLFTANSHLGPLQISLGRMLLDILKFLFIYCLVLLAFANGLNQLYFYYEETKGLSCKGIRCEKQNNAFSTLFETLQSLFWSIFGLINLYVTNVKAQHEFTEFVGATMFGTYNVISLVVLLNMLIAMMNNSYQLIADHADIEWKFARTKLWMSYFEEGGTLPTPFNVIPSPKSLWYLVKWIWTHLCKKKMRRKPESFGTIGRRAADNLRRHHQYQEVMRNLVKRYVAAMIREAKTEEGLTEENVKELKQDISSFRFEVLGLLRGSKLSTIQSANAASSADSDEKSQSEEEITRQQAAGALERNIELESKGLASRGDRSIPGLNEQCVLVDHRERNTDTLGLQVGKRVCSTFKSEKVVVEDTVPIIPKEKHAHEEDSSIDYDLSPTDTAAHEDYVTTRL

129S MFS mice = settings: 129S background, Mmp17/EGFR/p38MAPK/ERK effects; cited from earlier work

CCCCc1nc(Cl)c(CO)n1Cc1ccc(-c2ccccc2-c2nn[nH]n2)cc1 [Losartan]
response of aneurysms to therapy [1]: only partially respond | aneurysm growth (MFS mice; MFS mice started on therapy after aneurysms have formed / later in life): only attenuates aneurysm growth; also recorded: aneurysms continue to grow albeit at a slower rate; also recorded: had less of an effect | aneurysm formation / development (MFS mice; MFS mice treated prior to aneurysm development / at an early age): blocked aneurysm formation; also recorded: blocks aneurysm development; also recorded: did not develop aneurysms | aortic diameter growth (MFS mice; estimate used for power calculation, 0.1 mm standard deviation): 0.4 mm | aneurysm progression (MFS patients): only slowed aneurysm progression | number of patients who ultimately required surgery (MFS patients): did not affect

angiotensin II (DRVYIHPF; Angiotensin-2; UniProt P11859 25-32, looked up) [osmotically delivered exogenous angiotensin II used to accelerate aneurysm formation in MFS mice]
deaths of treatment group (FBN1 mutant MFS mouse [2]; at 14 days after implant): one third | deaths of treatment group (FBN1 mutant MFS mouse [2]; at 28 days after implant): more than half

angiotensin II [osmotically delivered exogenous angiotensin II used to accelerate aneurysm formation in MFS mice]
aneurysm formation [3]: did not form aneurysms | time to significant aortic aneurysms after pump implantation (FBN1 mutant MFS mouse [2]; MFS mice): ≥ 10 days | time to dilated cardiomyopathy after minipump installation (FBN1 mutant MFS mouse [2]; MFS mice, echocardiography): ≥ 14 days | surviving mice meeting echocardiographic criteria for dilated cardiomyopathy (FBN1 mutant MFS mouse [2]; after 14 days of pump installation): 60% | blood pressures (FBN1 mutant MFS mouse [2]; treatment group): not elevated | time to generate ascending aortic aneurysms (FBN1 mutant MFS mouse [4]): 2 weeks

Cc1cc(N2CCCCC2)nc2ccccc12 [ML204, 4-Methyl-2-(piperidin-1-yl) quinoline]
IC50 (TRPC4): 960 to 2600 nM

C#Cc1cccc(Nc2ncnc3cc(OCCOC)c(OCCOC)cc23)c1 [Erolotinib]
aggressive MFS phenotype (129S MFS mice): rescue the aggressive MFS phenotype
